Measurements published in patent US20070112035A1, “Substituted oxyarenes” (BAYER CROPSCIENCE AKTIENGESELLSCHAFT, priority 2003, published 2007).
Like-named read-outs stand apart in the source and are kept apart here.

Assays:
[1] = test system: Heliothis armigera larvae; test: Heliothis armigera test (soy sprouts, immersion); type: in vivo; details: Helicoverpa armigera, 168 h, 100 ppm active substance, after 7 days
Method: (§1) Solvent: 7 Parts by weight of dimethylformamide
(§2) Emulsifier: 2 Parts by weight of alkyl-aryl polyglycol ether
(§3) For the production of a practical active agent preparation, one mixes 1 part by weight of active substance with the specified amount of solvent and emulsifier and dilutes the concentrate to the desired concentration with water containing an emulsifier.
Soy sprouts (Glycine max) are treated through immersion in the active substance preparation of the desired concentration and filled with Heliothis armigera larvae, while the leaves are still moist.
(§4) After the desired time the mortality in % is determined. In doing so, 100% means that all larvae were killed; 0% means that no larvae were killed.

[2] = test system: Meloidogyne incognita egg/larvae suspension; test: Meloidogyne test (gall formation on lettuce); type: in vivo; details: 20 ppm active substance; nematicidal effect by gall formation, 100% = no galls
Excerpt: Meloidogyne Test Solvent: 7 Parts by weight of dimethylformamide Emulsifier: 2 Parts by weight of alkyl-aryl polyglycol ether For the production of a practical active agent preparation, one mixes 1 part by weight of active substance with the specified amount of solvent and emulsifier and dilutes the concentrate to the desired concentration with water. Vessels are filled with sand, active substance solution, Meloidogyne incognita egg/larvae suspension and lettuce seeds. The lettuce seeds germinate and the seedlings grow. The galls grow on the roots. After the desired time, the nematicidal effect is determined by means of gall formation in %. In doing so, 100% means that no galls were found; 0% means that the number of galls on the treated plants corresponds to the untreated control.

[3] = test system: cabbage moth larvae (Plutella xylostella); test: Plutella test (cabbage leaves, immersion); type: in vivo
Method: as §1, §2, §3
Cabbage leaves (Brassica oleracea) are treated through immersion in the active substance preparation of the desired concentration and filled with cabbage moth larvae (Plutella xylostella), while the leaves are still moist.
as §4

[4] = test system: fall armyworm larvae (Spodoptera exigua); test: Spodoptera exigua test (cabbage leaves, immersion); type: in vivo
Method: as §1, §2, §3
Cabbage leaves (Brassica oleracea) are treated through immersion in the active substance preparation of the desired concentration and filled with fall armyworm larvae (Spodoptera exigua), while the leaves are still moist.
as §4

[5] = test system: fall armyworm larvae (Spodoptera frugiperda); test: Spodoptera frugiperda test (spray treatment); type: in vivo; details: 100 ppm active substance, maize leaf slices
Excerpt: Spodoptera frugiperda Test (Spray Treatment) Solvent: 78 Parts by weight of acetone • • 1.5 Parts by weight of dimethylformamide Emulsifier: 0.5 Parts by weight of alkyl-aryl polyglycol ether For the production of a practical active agent preparation, one mixes 1 part by weight of active substance with the specified amount of solvent and emulsifier and dilutes the concentrate to the desired concentration with water containing an emulsifier. Maize leaf slices (Zea mays) are sprayed with an active substance preparation of the desired concentration and filled with fall armyworm larvae (Spodoptera frugiperda) after drying. After the desired time the effect in % is determined. In doing so, 100% means that all larvae were killed; 0% means that no larvae were killed.

[6] = test system: common spider mite (Tetranychus urticae); test: Tetranychus test (OP-resistant/spray treatment); type: in vivo; details: 100 ppm active substance, spray treatment, bean leaf slices, OP-resistant
Excerpt: Tetranychus Test (OP-Resistant/Spray Treatment)
Solvent: 78 Parts by weight of acetone • • 1.5 Parts by weight of dimethylformamide
Emulsifier: 0.5 Parts by weight of alkyl-aryl polyglycol ether
as §3
Bean leaf slices (Phaseolus vulgaris) that are affected by all stages of the common spider mite (Tetranychus urticae) are sprayed with a active substance preparation of the desired concentration.
After the desired time the effect in % is determined. In doing so, 100% means that all spider mites were killed; 0% means that no spider mites were killed.

[7] = log P (physical data); type: physicochemical
[8] = 100 ppm active substance, after 7 days, cabbage leaves

Row | Structure (SMILES) | Effect in % after 7 days [5] [%] | Effect in % after 7 days [6] [%] | other results
1 | COc1c(Cl)cc(OCC=C(Cl)Cl)cc1C1=NOC(CCCOc2ccc(C(F)(F)F)cn2)C1 (racemic) [Example I-1, (R/S)-3-(2-methoxy-3-chloro-5-(1,1-dichloro-1-propen-3-oxy)-phenyl)-5-((5-trifluormethylpyridin-2-yl)-3-(propyl)ether-1-yl)-Δ^2-isoxazoline] | 100 | 100 | mortality at 100 ppm [1]: 100%; Effect in % after 14 days [2]: 80%; mortality at 100 ppm ([3]; Plutella xylostella, 168 h): 100%; mortality at 100 ppm ([4]; Spodoptera exigua, 168 h): 100%
2 | COc1c(Cl)cc(OCC=C(Cl)Cl)cc1C1=NOC(COc2ccc(C(F)(F)F)cn2)C1 (racemic) [Example I-5, (R/S)-3-(2-methoxy-3-chloro-5-(dichlorpropenoxy)phenyl)-5-((5-trifluormethylpyridin-2-yl)-2-(methyl)ether-1-yl)Δ^2-isoxazoline] | 10 | – | –
3 | COc1c(Cl)cc(OCC=C(Cl)Cl)cc1C1=NOC(CCOc2ccc(OCC(F)(F)F)nc2)C1 (racemic) [Example I-6, (R/S)-3-(2-methoxy-3-chloro-5-(dichloropropenoxy)phenyl)-5-((6-trifluorethoxypyridin-3-yl)-2-(ethyl)ether-1-yl)Δ^2-isoxazoline] | 100 | – | mortality [3, 8]: 100%; mortality [4, 8]: 100%
4 | COc1c(Cl)cc(OCC=C(Cl)Cl)cc1C1=NOC(CCCOc2ccc(OCC(F)(F)F)nc2)C1 (racemic) [Example I-7, (R/S)-3-(2-methoxy-3-chloro-5-(dichloropropenoxy)phenyl)-5-((6-trifluorethoxypyridin-3-yl)-3-(propyl)ether-1-yl)Δ^2-isoxazoline] | 100 | 80 | –
5 | COc1c(Cl)cc(OCC=C(Cl)Cl)cc1C1=NOC(CCCCOc2ccc(C(F)(F)F)cn2)C1 (racemic) [Example I-10, (R/S)-3-(2-methoxy-3-chloro-5-(dichloropropenoxy)phenyl)-5-((5-trifluormethylpyridin-2-yl)-4-(butyl)ether-1-yl)Δ^2-isoxazoline] | 100 | 80 | –
6 | COc1c(Cl)cc(OCC=C(Cl)Cl)cc1C1=NOC(CCOc2ccc(OCC(F)(F)F)nc2)C1 (racemic) [Example I-11, (R/S)-3-(2-methoxy-3-chloro-5-(dichloropropenoxy)phenyl)-5-((6-trifluorethoxypyridin-3-yl)-2-(ethyl)ether-1-yl)Δ^2-isoxazoline] | 100 | – | –
7 | COc1c(Cl)cc(OCC=C(Cl)Cl)cc1-c1cc(CCOc2ccc(C(F)(F)F)cn2)on1 [Example I-9, 3-(2-methoxy-3-chloro-5-(dichloropropenoxy)phenyl)-5-((5-trifluormethylpyridin-2-yl)-2-(ethyl)ether-1-yl)isoxazole] | 100 | 90 | –
8 | COc1ccc(OCC=C(Cl)Cl)cc1-c1noc(CCCOc2ccc(C(F)(F)F)cn2)n1 [Example I-127, 2-(3-{3-[5-(3,3-dichloro-allyloxy)-2-methoxy-phenyl]-[1,2,4]oxadiazol-5-yl}-propoxy)-5-trifluoromethyl-pyridine] | – | – | logP ([7]; neutral, read-out: log P (neutral)): 4.93
9 | COc1c(Cl)cc(OCC=C(Cl)Cl)cc1-c1nc(CCCOc2ccc(C(F)(F)F)cn2)no1 [Example I-128, 2-(3-{5-[3-chloro-5-(3,3-dichloro-allyloxy)-2-methoxy-phenyl]-[1,2,4]oxadiazol-3-yl}-propoxy)-5-trifluoromethyl-pyridine] | – | – | logP ([7]; read-out: log P): 5.99
10 | COc1c(Cl)cc(OCC=C(Cl)Cl)cc1C1=NC(CO)CO1 (centres unmarked) [{2-[3-chloro-5-(3,3-dichloro-allyloxy)-2-methoxy-phenyl]-4,5-dihydro-oxazol-4-yl}-methanol] | – | – | logP ([7]; pH=2.3, read-out: log P(pH=2.3)): 2.05
